Legend:
[1] = tested on: bacterial strains found in the human small intestine; experiment: Inhibition of bacterial growth by bile acids, microbroth dilution, optical density at 630 nm; format: cell-based
Experimental: The toxicity of several bile acids to various gut microbiome species was examined. Representative species were exposed to different bile acids at a range of concentrations under either aerobic or anaerobic condition, and the growth of the species at these concentrations was measured by determining the optical density of the culture.
Lactobacillus casei CP was purchased from Custom Probiotics Inc. (Glendale, Calif.) as L. casei Custom Probiotic Powder (strain confirmed by Sanger sequencing of the 16S gene). Pediococcus pentosaceus KE-99 was purchased from Probiohealth (Beverly Hills, Calif.) as KE-99 LACTO Tablet (strain confirmed by Sanger sequencing of the 16S gene). L. casei 393, Streptoccocus thermophilus LMD-9, Akkermansia muciniphila Muc, and Veillonella parvula Te3 were purchased from the American Type Culture Collection (ATCC, Manassas, Va.). Lactococcus lactis NZ9000 was purchased from BOCA Scientific (Boca Raton, Fla.). Escherichia coli Nissle was obtained from Dr. Mark Goulian (University of Pennsylvania, Philadelphia, Pa.).
L. casei, P. pentasaceus, and L. lactis were grown in de Man, Rogosa, and Sharpe (MRS) medium (Anaerobe Systems, Morgan Hill, Calif.); E. coli was grown in lysogeny broth (LB) medium (Fisher Scientific, USA); S. thermophilus and A. muciniphila were grown in brain heart infusion (BHI) medium (Fisher Scientific, USA and Anaerobe Systems, Morgan Hill, Calif.), and; V. parvula was grown in reinforced clostridial medium (Fisher Scientific, USA). Aerobic cultures were incubated at 37° C.; anaerobic cultures were incubated at 37° C. in an anaerobic glove box (Coy Laboratories, Grass Lake, Mich.).
Glycochenodeoxycholic, glycocholic, and taurocholic acids were purchased from Sigma Aldrich (St. Louis, Mo.). Obeticholic acid was provided by Intercept Pharmaceuticals, Inc. (New York, N.Y.).
Inhibition of bacterial growth by bile acids was determined by the microbroth dilution method. Plates were prepared with 100 uL of medium containing the appropriate concentrations of bile acid. Wells were inoculated with 1 uL of an overnight culture, covered, and incubated overnight (3 days for A. muciniphila and V. parvula, which are slow growing organisms). Growth was measured via optical density at 630 nm, and measurements were zeroed against wells containing the appropriate bile acid level with no bacteria. All tests were performed in triplicate. Data is expressed as the percent (%) reduction in growth, which was calculated against controls (i.e., no bile acids). The responses of representative species to different concentrations of bile acids are illustrated by the heat maps shown in FIGS. 53A-53D.

[2] = tested on: small intestinal microbiota; experiment: 16S tagged sequencing of small intestinal and fecal microbiota of OCA-treated mice; format: in vivo; details: 10 mg/kg OCA, 14 days
Text: FIG. 60: The effect of OCA on the composition of the proximal and distal small intestinal, as well as the feces, microbiota of mice based on 16S tagged sequencing.
FIG. 63: Box and whisker plots of differentially abundant taxa in the distal small intestine of mice in response to treatment with OCA relative to two controls. S24-7, Clostridiaceae, and Turibacter are differentially abundant between the MC and OCA groups (fdr=0.1759, 0.04503, and 0.2332, respectively); Sutterella and Akkermansia are differentially abundant between the control and OCA groups (fdr=0.3199 for both).
The bacterial species that increase most prominently upon OCA treatment have been reported to represent a significant proportion of the small intestinal microbiota, but are very minor constituents in stool. For example, Streptococci represent as much as 20% of the human small intestinal microbiota by 16S tagged sequencing (Dlugosz et al., Sci Rep-Uk, 5 (2015)); El Aidy et al., Curr Opin Biotechnol., 32, 14-20 (2015)). […] To determine whether OCA treatment can alter the gut microbiota composition specifically in the small intestine, mice were treated with OCA for 14 days, the microbiota composition in the proximal and distal small intestine, as well as the stool, and quantified bile acids were characterized. […] Also notable was the quantitative difference in the absolute levels of luminal bile acids in the small intestine (approximately 100-fold greater than in the feces, FIGS. 59A-59C); this is consistent with enterohepatic reabsorption of over 95% of bile acids in the terminal ileum of the small intestine (de Aguiar Vallim et al., Cell Metabolism, 17, 657-669 (2013)).

With CC[C@H]1[C@@H](O)[C@@H]2[C@H](CC[C@]3(C)[C@@H]([C@H](C)CCC(=O)O)CC[C@@H]23)[C@@]2(C)CC[C@@H](O)C[C@@H]12 [OCA, 3α,7α-dihydroxy-6α-ethyl-5β-cholan-24-oic acid] the “effect on growth at calculated physiologic levels of the human small intestine” value ([1]; approximately 12 micromolar, aerobically or anaerobically) was “no effect on any strain tested”, the “effect on growth at high concentrations” value ([1]; high concentrations of OCA) was “growth inhibitory effect on several strains” and the “Clostriciaceae family of Firmicutes in proximal and distal small intestine” value [2] was “increased abundance”. The “Clostriciaceae family of Firmicutes in the feces” value [2] was “not in the feces” and the “overall composition of the small intestinal microbiota” value ([2]; versus water and methylcellulose) was “different from both control groups”.
